Experimental data: PubChem BioAssay (NCI)
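Interpolation was linear, between the two tested concentrations surrounding the appropriate level; five concentrations were tested over 48 hours in 96-well plates. TGI: concentration producing complete growth inhibition.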

How the values were obtained:
Test in all cases: NCI tumour cell line growth inhibition, 48 h
U251 CNS = test system: U251 CNS
SK-MEL-5 melanoma = test system: SK-MEL-5 melanoma
MCF7 breast = test system: MCF7 breast
MDA-MB-435 = test system: MDA-MB-435
K-562 leukemia = test system: K-562 leukemia
TK-10 renal = test system: TK-10 renal
RXF 393 renal = test system: RXF 393 renal
SF-268 CNS = test system: SF-268 CNS
RPMI-8226 leukemia = test system: RPMI-8226 leukemia
SF-295 CNS = test system: SF-295 CNS
786-0 renal = test system: 786-0 renal
OVCAR-3 ovarian = test system: OVCAR-3 ovarian
NCI/ADR-RES ovarian = test system: NCI/ADR-RES ovarian
SW-620 colon = test system: SW-620 colon
SR leukemia = test system: SR leukemia
IGROV1 ovarian = test system: IGROV1 ovarian
EKVX NSCLC = test system: EKVX NSCLC
MOLT-4 leukemia = test system: MOLT-4 leukemia
NCI-H522 lung = test system: NCI-H522 lung
MDA-MB-231 breast = test system: MDA-MB-231 breast

| SMILES | TGI (U251 CNS) | TGI (SK-MEL-5 melanoma) | TGI (MCF7 breast) | TGI (MDA-MB-435) | TGI (K-562 leukemia) | TGI (TK-10 renal) | TGI (RXF 393 renal) | TGI (SF-268 CNS) | TGI (RPMI-8226 leukemia) | TGI (SF-295 CNS) | TGI (786-0 renal) | TGI (OVCAR-3 ovarian) | TGI (NCI/ADR-RES ovarian) | TGI (SW-620 colon) | TGI (SR leukemia) | TGI (IGROV1 ovarian) | TGI (EKVX NSCLC) | TGI (MOLT-4 leukemia) | TGI (NCI-H522 lung) | TGI (MDA-MB-231 breast) |
| --- | --- | --- | --- | --- | --- | --- | --- | --- | --- | --- | --- | --- | --- | --- | --- | --- | --- | --- | --- | --- |
| COc1ccc(-c2cc3ccccc3oc2=O)cc1OC | > 100 µM | > 100 µM | > 100 µM | > 100 µM | > 100 µM | > 100 µM | > 100 µM | > 100 µM | > 100 µM | > 100 µM | > 100 µM | > 100 µM | > 100 µM | > 100 µM | > 100 µM | > 100 µM | > 100 µM | > 100 µM | > 100 µM | > 100 µM |
| CC1=C(/C=C/C(C)=C/C=C/C(C)=C/C(=O)OC2CC(n3cc(F)c(=O)[nH]c3=O)OC2CO)C(C)(C)CCC1 (stereo not given) | 20 µM | 13.9 µM | 19.5 µM | 25.2 µM | 14 µM | 25.8 µM | 24 µM | 19.5 µM | 15.8 µM | 14.3 µM | 16.7 µM | 22.5 µM | 24.9 µM | 26.9 µM | > 47.2 µM | 24.6 µM | 32.9 µM | 20.2 µM | 11.4 µM | 29.4 µM |
| CCOC(=O)/C=C(\C(=O)OCC)n1ccc(=O)n(Cc2cn(CCCCOC(C)=O)nn2)c1=O | 30.9 µM | > 54.2 µM | 23.8 µM | 18.1 µM | > 34.1 µM | 13.6 µM | 47.4 µM | 36.9 µM | > 36 µM | > 62.1 µM | > 51.1 µM | 29.2 µM | 53.3 µM | 8.38 µM | > 36 µM | 43 µM | 31.4 µM | 9.12 µM | 4.03 µM | 39.1 µM |
| COCOC1C=CCCCC2=CC(C)=C(CC1)O2 (stereo not given) | > 100 µM | > 100 µM | > 100 µM | > 100 µM | > 100 µM | > 100 µM | > 100 µM | > 100 µM | > 100 µM | > 100 µM | > 100 µM | > 100 µM | > 100 µM | > 100 µM | > 100 µM | > 100 µM | > 100 µM | > 100 µM | > 100 µM | > 100 µM |
| CC1OC(OC2C(OC(=O)[C@]34CCC(C)(C)C[C@H]3C3=CC[C@@H]5[C@@]6(C)CC[C@H](OC7OC(CO)C(O)C(O)C7OC7OC(CO)C(O)C(O)C7O)C(C)(C)[C@@H]6CC[C@@]5(C)[C@]3(C)CC4)OCC(O)C2O)C(O)C(OC2OCC(O)C(O)C2O)C1OC1OCC(O)C(OC2OCC(O)C(O)C2O)C1O (stereo not given in full) | > 56.8 µM | 23.3 µM | 58.3 µM | 5.6 µM | 23.2 µM | 29.8 µM | 55.5 µM | 33.1 µM | 24 µM | 21.4 µM | 62.6 µM | > 100 µM | > 100 µM | > 55.6 µM | 16.2 µM | > 67.4 µM | 17.1 µM | 48.6 µM | 9.56 µM | 26.9 µM |
| CC(C)=CCC/C(C)=C/CC/C(C)=C/CC(CO)N(C)CC/C=C(\C)CCC=C(C)C (stereo not given) | 14.5 µM | 23.2 µM | 4.8 µM | 13.2 µM | 3.7 µM | 22.7 µM | 12.8 µM | 26.7 µM | 10.1 µM | 19.9 µM | 4.89 µM | 27.8 µM | 16.4 µM | 13.7 µM | 4.8 µM | 16 µM | 23.4 µM | 6.69 µM | 3.89 µM | 22.6 µM |
| O=c1nc(N2CCNCC2)oc2cc(Cl)oc(=O)c12 | 16 µM | 19 µM | 17.8 µM | 18.5 µM | > 27.4 µM | 23.9 µM | 24.8 µM | 15.9 µM | 5.62 µM | 20.9 µM | 8.66 µM | 15.2 µM | 25.8 µM | 21.1 µM | 4.41 µM | 16.6 µM | 19.4 µM | 7.37 µM | 5.9 µM | 35.7 µM |
| O=c1c2ncn(C3CCCO3)c2n(-c2ccccc2)c(=S)n1-c1ccccc1 (stereo not given) | > 100 µM | > 100 µM | > 100 µM | > 100 µM | > 100 µM | > 100 µM | > 100 µM | > 100 µM | > 100 µM | > 100 µM | > 100 µM | > 100 µM | > 100 µM | > 100 µM | > 100 µM | > 100 µM | > 100 µM | > 100 µM | > 100 µM | > 100 µM |
| COc1ccc(C[C@H]2COC(=O)[C@@H]2Cc2cccc(Br)c2)cc1OC | 73.4 µM | 30.5 µM | 63.2 µM | 56.9 µM | > 100 µM | 82 µM | 77.6 µM | > 100 µM | 56.1 µM | > 100 µM | > 100 µM | 60.4 µM | > 100 µM | 83.3 µM | 32.8 µM | > 100 µM | 97.1 µM | 82.3 µM | 47.5 µM | 64.9 µM |
| COC(=O)/C=C\C(C#N)(C#N)N=Cc1cc(Br)cs1 | 29.3 µM | 18.3 µM | 4.49 µM | 8.34 µM | > 100 µM | 8.45 µM | 5.38 µM | 16.5 µM | > 71.3 µM | 31.8 µM | 3.78 µM | 17.4 µM | 36.3 µM | 2.72 µM | > 100 µM | 14.1 µM | 18.7 µM | > 100 µM | 2.9 µM | 23.3 µM |
